# Data published in publication PMC10605077, “In Vitro and In Silico Antiviral Activity of Di-Halogenated Compounds Derived from L-Tyrosine against Human Immunodeficiency Virus 1 (HIV-1)” (Current Issues in Molecular Biology, 2023).
# Tests used:
# HIV-1 BaL [1] = assay: Anti-HIV activity in PBMC, intracellular p24 by flow cytometry; type: cell-based; details: 7 days
# Method: In the presence of various concentrations of the most bioactive compounds, 1×10^6 PBMCs previously stimulated with 8 μg/mL of PHA and 50UI/mL of IL-2 were treated for 1 h. […] After spinoculation, cells were washed twice with PBS 1x to remove free virions, and then, fresh medium supplemented with 20 UI/mL of IL-2, with or without the di-halogenated compounds derived from L-Tyrosine dilutions, was added. Cells were plated in 96-well culture plates and incubated for 7 days. […] In addition, antiviral activity was also assessed by measuring intracellular p24 in harvested cells. Briefly, cells were stained with fixable viability dye eFluor 506 (eBioscience, Leicestershire, UK), CD3 (UCHT1; Thermo Scientific, Wilmington, DE, USA), CD4 (RPA-T4; BD Biosciences, San Jose, CA, USA), and p24 PE (KC57; Beckman Coulter, Pasadena, CA, USA), as detailed in the manufacturer’s protocol. Later, cells were washed and resuspended in PBS, and the lecture was measured instead in the LS Fortessa cytometer (BD Biosciences, Franklin Lakes, NJ, USA). Data were analyzed using FlowJo version 10.5.3 (FlowJo, LLC, Ashland, OR, USA).
# HIV-1 BaL (R5) = assay: Anti-HIV activity in infected TZM-bl cells (luciferase), pre- and post-infection treatment; type: cell-based, Human Immunodeficiency Virus Type 1 (HIV-1)
# Method: (§1) TZM-bl cells were plated in a flat-bottom 96-well plate (Corning Inc., Corning, New York, NY, USA) at the concentration of 1.2 × 10^5 cells/well and incubated for 24 h at 37 °C before the addition or not of each compound at non-cytotoxic concentrations (pre-infection treatment). Then, 1 h later the treatment was removed, and the infection was performed by adding 10 ng/mL of HIV-1IIIB p24 (X4) or 2 ng/mL of HIV-1 BaL (R5). After 3 h, the virus was removed and washed, and the compound dilutions were added again (post-infection treatment). Additionally, three wells were left for the negative control (cells without treatment or infection), the positive control of infection (cells infected with the virus without treatment), and the positive control of inhibition (AZT). Antiviral activity was quantified 48 h after treatment by measuring luciferase activity, which is directly proportional to the number of infectious virus particles in the sample [23]. The luciferase activity was quantified via luminescence emitted by the cells using Bright-GloTM Luciferase Assay System (Promega Corp., Madison, WI, USA), following the manufacturer’s instructions. Briefly, 100 μL of the reagent was added to 100 μL of TZM-bl cells and incubated for at least 2 min, protected from light. Relative light units (RLUs) were measured using the multi-mode plate reader (Thermo ScientificTM VarioskanTM LUX). Each experimental condition was performed in triplicate in two independent experiments (n = 6). The percentage inhibition was calculated as follows: 100 − (RLU of treated cells − RLU of uninfected cells/RLU of infection control − RLU of uninfected cells) × 100.
# HIV-1IIIB (X4) = assay: as above; type: cell-based, Human Immunodeficiency Virus Type 1 (HIV-1); details: TZM-bl cells
# Method: as §1
# MTT cytotoxicity assay = type: cell-based; details: human; TZM-bl cells, MTT, 48 h
# Method: The in vitro cytotoxic effect of the di-halogenated compounds on TZM-bl cells was determined with the MTT (3-(4,5-Dimethylthiazol-2-yl)-2,5-diphenyltetrazolium bromide) assay (Sigma-Aldrich, St. Louis, MO, USA). For this purpose, 1.2 × 10^5 cells/well were seeded in 96-well plates, which were incubated at 37 °C and 5% CO2 for 24 h. DMEM was used as a negative control and serial two-fold dilutions of the compounds were performed at 9.37 to 300 μM in DMEM supplemented with 5% FBS. A total of 100 μL/well of each dilution was added and incubated for 48 h. Subsequently, the cells were washed 2 times with 1X PBS, and 30 μL of MTT solution (2 mg/mL) was added and incubated for 2 h at 37 °C, in a light-protected culture. Then, 100 µL of DMSO was added to dissolve the formazan crystals, placed in shaking for 15 min, and absorbance reading was performed at 570 nm, using the Microplate Spectrophotometer (Thermo Scientific™ Multiskan™ GO, Waltham, MA, USA). Two independent experiments evaluated each experimental condition in quadruplicate (n = 8). The percentage of viability was calculated concerning the absorbance of the controls without a compound (100% viability). The 50% cytotoxic concentration was defined as the concentration of each compound that can reduce cell viability to 50% of the untreated cell control. CC50 was calculated and analyzed with GraphPad Prism version 8.0.1 (GraphPad Software, Inc., San Diego, CA, USA).
# [2] = tested on: HIV-GFP-VSV-G reporter virus; assay: microbe, parasite or virus in culture; type: cell-based, HIV-1; details: Human immunodeficiency virus 1, TZM-bl, read-out: percentage inhibition of HIV-GFP-VSV-G replication
# HIV-1 BaL [3] = assay: Anti-HIV activity in PBMC, p24 ELISA of supernatant; type: cell-based; details: 150 μM, supernatant, 7 days
smiles,measurement,setting,value
COc1c(Cl)cc(C[C@@H](C(=O)O)N(C)C)cc1Cl [TODC-2M],inhibition at 18.75 µM,"HIV-1 BaL [1]; Human immunodeficiency virus 1, BAL, PBMC, 168 h, 18.75 μM, read-out: inhibition of HIV-1 BaL replication in PBMC, flow cytometry (intracellular p24)",50.6%
same,inhibition at 75 µM,"HIV-1 BaL [1]; Human immunodeficiency virus 1, BAL, PBMC, 168 h, 75 μM, read-out: inhibition of HIV-1 BaL replication in PBMC, flow cytometry (intracellular p24)",69.6%
same,inhibition at 150 µM,"HIV-1 BaL [1]; Human immunodeficiency virus 1, BAL, PBMC, 168 h, 150 µM, read-out: inhibition of HIV-1 BaL replication in PBMC, flow cytometry (intracellular p24)",> 60%
same,"inhibition of HIV-1 BaL replication in PBMC, flow cytometry (intracellular p24)",HIV-1 BaL [1]; all concentrations,over 50%
same,IC50,"HIV-1 BaL (R5); Human immunodeficiency virus 1, BAL, TZM-bl, 48 h, HIV-1 BaL (R5), TZM-bl cells, luciferase",67.4 µM
same,inhibition at 18 µM,"HIV-1 BaL (R5); Human immunodeficiency virus 1, BAL, 18 µM, TZM-bl cells, read-out: Percentage inhibition of HIV-1 BaL replication",38%
same,inhibition at 37 µM,"HIV-1 BaL (R5); Human immunodeficiency virus 1, BAL, 37 µM, TZM-bl cells, read-out: Percentage inhibition of HIV-1 BaL replication",46.4%
same,inhibition at 75 µM,"HIV-1 BaL (R5); Human immunodeficiency virus 1, BAL, 75 µM, TZM-bl cells, read-out: Percentage inhibition of HIV-1 BaL replication",60.5%
same,inhibition at 150 µM,"HIV-1 BaL (R5); Human immunodeficiency virus 1, BAL, 150 µM, TZM-bl cells, read-out: Percentage inhibition of HIV-1 BaL replication",61.1%
same,SI,HIV-1 BaL (R5); selectivity index against HIV-1 BaL (CC50 and IC50 of Table 3),>4.45
same,inhibition at 18 µM,"HIV-1IIIB (X4); Human immunodeficiency virus 1, TZM-bl, 18 µM, read-out: Percentage inhibition of HIV-1IIIB (X4 strain) replication",-18.5%
same,inhibition at 37 µM,"HIV-1IIIB (X4); Human immunodeficiency virus 1, TZM-bl, 37 µM, read-out: Percentage inhibition of HIV-1IIIB (X4 strain) replication",40.6%
same,inhibition at 75 µM,"HIV-1IIIB (X4); Human immunodeficiency virus 1, TZM-bl, 75 µM, read-out: Percentage inhibition of HIV-1IIIB (X4 strain) replication",62.8%
same,inhibition at 150 µM,"HIV-1IIIB (X4); Human immunodeficiency virus 1, TZM-bl, 150 µM, read-out: Percentage inhibition of HIV-1IIIB (X4 strain) replication",99.6%
same,IC50,"HIV-1IIIB (X4); Human immunodeficiency virus 1, HIV-1IIIB (X4), luciferase, 48 h",~39.1 µM
same,CC50 at 48 h,MTT cytotoxicity assay,> 300 µM
same,inhibition at 150 µM,[2],29%
same,"inhibition of HIV-1 BaL in PBMC, extracellular p24 ELISA",HIV-1 BaL [3],21.6%
same,inhibition at 150 µM,"HIV-1 BaL [3]; Human immunodeficiency virus 1, BAL, PBMC, 168 h, read-out: inhibition of HIV-1 BaL in PBMC, extracellular p24 ELISA",> 20%
